Reference: patent publication US20220160739A1, “METHODS FOR TREATING SUBJECTS WITH CHRONIC KIDNEY DISEASE” (Janssen Pharmaceutica NV, priority 2019, published 2022)

How the values were obtained:
[1] = tested on: patients with type 2 diabetes mellitus (T2DM), Stage 2 or 3 chronic kidney disease (CKD) and macroalbuminuria; assay: Randomized, double-blind, placebo-controlled study of canagliflozin: efficacy (renal and CV endpoints, HbA1c, body weight, blood pressure); type: in vivo, human
Text: (§1) This was a randomized, double-blind, event-driven, placebo-controlled, parallel-group, 2-arm, multicenter study to evaluate the effects of canagliflozin relative to placebo on progression to doubling of serum creatinine, end-stage kidney disease (ESKD), renal or cardiovascular (CV) death in patients with type 2 diabetes mellitus (T2DM), Stage 2 or 3 chronic kidney disease (CKD) and macroalbuminuria, who were receiving standard of care including a maximum tolerated labeled daily dose of an angiotensin-converting enzyme inhibitor (ACEi) or angiotensin receptor blocker (ARB). […] The safety objective was to assess the overall safety and tolerability of canagliflozin.
Randomization included a 1:1 ratio to canagliflozin 100 mg or matching placebo, stratified by screening estimated glomerular filtration rate (eGFR) [≥30 to less than 45, ≥45 to less than 60, ≥60 to less than 90 mL/min/1.73 m^2]. The primary efficacy composite endpoint was the time to the first occurrence of doubling of serum creatinine, ESKD, and renal or CV death. The major secondary efficacy endpoints (tested in the following hierarchical order) included: • Composite of CV death and hospitalized heart failure • Composite of CV death, non-fatal MI, and non-fatal stroke (i.e., 3-point “MACE”) • Hospitalized heart failure • Composite of doubling of serum creatinine, ESKD, and renal death • CV death • All-cause death • Composite of CV death, non-fatal MI, non-fatal stroke, hospitalized heart failure, and hospitalized unstable angina
A planned interim analysis was conducted at 413 primary endpoints and the IDMC subsequently recommended to stop the study early for efficacy based on pre-specified stopping criteria.
The primary analysis was performed in the Intent-To-Treat (ITT) analysis set (i.e., all randomized subjects through end of study) using a stratified Cox proportional hazard model including treatment as the explanatory variable and stratified by screening eGFR. Secondary endpoints were similarly analyzed.
As a result of stopping at the interim analysis, the primary endpoint was tested at a two-sided significance level of 0.022 based on the alpha spending function, whereas secondary endpoints were tested at 0.038.
Analyses were performed to assess the impact of adjusting for postbaseline measurements of HbA1c and systolic blood pressure in the primary efficacy analysis. A series of proportional hazard regression models which included postbaseline HbA1c and systolic blood pressure measurements as time-varying covariates were fit. Because changes in HbA1c have a delayed effect on cardiovascular risk, several models were constructed. In each model, HbA1c was evaluated first using the single coincident value, a single lagged value, and then as a running mean average value. Single coincident systolic blood pressure measurements were used for all analyses.

[2] = tested on: patients with type 2 diabetes mellitus (T2DM), Stage 2 or 3 chronic kidney disease (CKD) and macroalbuminuria; assay: Randomized, double-blind, placebo-controlled study of canagliflozin: safety and tolerability (adverse events); type: in vivo
Text: as §1, with “canagliflozin. […]” for “canagliflozin.”
Treatment-emergent safety analyses and summaries were presented using the On-Treatment analysis set (i.e., all treated subjects through 30 days after last dose), whereas analyses of amputation, fracture, and malignancy were performed using the On-Study analysis set (i.e., all treated subjects through end of study).
Safety analyses were performed using either the On-Treatment analysis set (treated subjects up to 30 days of last dose) or the On-Study analysis set (treated subjects through the end of study).

[3] = canagliflozin compared to placebo, ITT
[4] = canagliflozin minus placebo, end of treatment
[5] = Cox proportional hazards model, On-Study
[6] = denominators restricted to females
[7] = renal related AE by preferred term

## Cc1ccc(C2OC(CO)C(O)C(O)C2O)cc1Cc1ccc(-c2ccc(F)cc2)s1 (stereo not drawn) [Canagliflozin]
[1]; 30-45 eGFR stratum
  HbA1c placebo-subtracted difference of LS means for change from baseline: 0.03
[1]; 45-60 eGFR stratum
  HbA1c placebo-subtracted difference of LS means for change from baseline: −0.18
[1]; 60 to <90 eGFR stratum
  HbA1c placebo-subtracted difference of LS means for change from baseline: −0.21
[1]; FIG. 1, maintained across the entire study
  Kaplan-Meier plot, primary composite endpoint: initial separation: 52 Week
[1]; HbA1c Concurrent in the Cox model
  Treatment HR for the primary efficacy outcome, adjusted for time-varying HbA1c and systolic blood pressure: 0.724
[1]; HbA1c Lagged By 1 Visit
  Treatment HR for the primary efficacy outcome, adjusted for time-varying HbA1c and systolic blood pressure: 0.737
[1]; HbA1c Running Mean
  Treatment HR for the primary efficacy outcome, adjusted for time-varying HbA1c and systolic blood pressure: 0.740
[1]; ITT
  All-Cause Mortality (%): (7.6) %
  All-Cause Mortality EVRT: 29.04 per 1000 patient-years
  All-Cause Mortality n/N: 168/2202
  Composite of CV Death/NFMI/NF Stroke/HHF/HUSA (%): (12.4) %
  Composite of CV Death/NFMI/NF Stroke/HHF/HUSA EVRT: 49.35 per 1000 patient-years
  Composite of CV Death/NFMI/NF Stroke/HHF/HUSA n/N: 273/2202
  Composite of DoSC/ESKD/Renal Death (%): (6.9) %
  Composite of DoSC/ESKD/Renal Death EVRT: 26.99 per 1000 patient-years
  Composite of DoSC/ESKD/Renal Death n/N: 153/2202
  HHF (%): (4.0) %
  HHF (hospitalized heart failure) n/N: 89/2202
  HHF EVRT: 15.65 per 1000 patient-years
  MACE (%): (9.9) %
  MACE EVRT: 38.71 per 1000 patient-years
[1]; ITT, CV death, non-fatal MI, non-fatal stroke
  MACE n/N: 217/2202
[1]; ITT, canagliflozin 100 mg
  Composite of CV Death/HHF (%): (8.1) %
  Composite of CV Death/HHF EVRT: 31.47 per 1000 patient-years
  Composite of CV Death/HHF n/N: 179/2202
  Doubling of Serum Creatinine EVRT: 20.73 per 1000 patient-years
  ESKD EVRT: 20.37 per 1000 patient-years
  Primary Composite Endpoint EVRT (event rate): 43.21 per 1000 patient-years
  Renal Death EVRT: 0.35 per 1000 patient-years
[1]; On-Treatment analysis set, vs placebo
  Primary composite endpoint HR, supportive analysis: 0.64
[1]; [3]
  Doubling of Serum Creatinine HR (95% CI): 0.60 (0.48, 0.76)
  ESKD HR (95% CI): 0.68 (0.54, 0.86)
[1]; [4]
  Body weight least-squares mean difference, change from baseline: −1.72%
  HbA1c least-squares mean difference, change from baseline: −0.13%
  Systolic blood pressure least-squares mean difference, change from baseline: −2.81 mmHg
[1]; compared to placebo, ITT
  Reduction of risk of the primary composite endpoint: 30%
[1]; on top of current standard of care that includes ACEi or ARB therapy
  Reduction of risk of certain primary endpoints: about 25%
[1]; vs placebo
  Exploratory hard composite of ESKD, renal death and CV death HR: 0.73
[1]; vs placebo, ITT
  Composite of CV death and hospitalized heart failure HR: 0.69
  Composite of CV death and hospitalized heart failure risk reduction: 31%
  Composite of doubling of serum creatinine, ESKD, and renal death HR: 0.66
  Composite of doubling of serum creatinine, ESKD, and renal death risk reduction: 34%
  Hospitalization for heart failure HR: 0.61
  Hospitalization for heart failure risk reduction: 39%
  MACE HR: 0.80
  MACE risk reduction: 20%
[2]; [5]
  Adjudicated fracture: HR (vs. Placebo): 0.98
  Atraumatic lower limb amputation: HR (vs. Placebo): 1.11
[2]; ITT analysis set, N = 2202
  Final vital status: Alive n (%): 2030 (92.2)
  Final vital status: Died n (%): 168 (7.6)
[2]; On-Study
  Adjudicated fracture: IRD (minus Placebo): −0.29 /1000 subject-years
  Adjudicated fracture: incidence rate: 11.80 /1000 subject-years
  Adjudicated fracture: number of events: 80
  Atraumatic lower limb amputation: IRD (minus Placebo): 1.16 /1000 subject-years
  Atraumatic lower limb amputation: incidence rate: 12.34 /1000 subject-years
  Atraumatic lower limb amputation: number of events: 87
[2]; On-Study, N = 2200
  Adjudicated fracture: subjects with any event (%): (3.0) %
  Atraumatic lower limb amputation: subjects with any event (%): (3.2) %
[2]; On-Treatment, N = 2200
  Adverse Events Leading to Discontinuation N (%): 267 (12.1)
  Adverse Events Related to Study Drug N (%): 469 (21.3)
  Adverse Events Related to Study Drug and Leading to Discontinuation N (%): 75 (3.4)
  Any Adverse Events N (%): 1784 (81.1)
  Death (fatal adverse event) N (%): 109 (5.0)
  Renal related adverse events: total subjects with the AEs (%): (13.2) %
  Serious Adverse Events Leading to Discontinuation N (%): 134 (6.1)
  Serious Adverse Events N (%): 737 (33.5)
  Serious Adverse Events Related to Study Drug N (%): 62 (2.8)
  Serious Adverse Events Related to Study Drug and Leading to Discontinuation N (%): 16 (0.7)
[2]; Table 8
  Renal related adverse events: incidence rate: 57.12 per 1000 person-years
[2]; between the treatment groups
  Overall incidence rate of neoplasms: low and balanced between the treatment groups
[2]; canagliflozin compared to placebo
  Adjudicated diabetic ketoacidosis (DKA) IRD: 1.73 per 1,000 subject-years
[2]; canagliflozin group
  Adjudicated RCC incidence rate: 0.17 per 1000 patient-years
  Adjudicated renal cell carcinoma (RCC): subjects: 1 subject
  Adjudicated renal cell carcinoma (RCC): subjects (%): < 0.1%
  Adverse event cited as reason for treatment discontinuation: 12%
  Female breast cancer incidence rate: 4.08 per 1000 patient-years
  Hyperkalemia adverse events incidence rate: 29.74 per 1,000 subject-years
  Renal-related adverse events: incidence rate: 57.12 per 1,000 subject-years
  Volume depletion adverse events incidence rate: 28.36 per 1,000 subject-years
[2]; [6]
  Malignancy (Breast) IRD, Canagliflozin vs. Placebo: 2.49 /1000 subject years
  Malignancy (Breast) n (%): 8 (1.1)
  Malignancy (Breast) rate: 4.08 /1000 subject years
[2]; exposure adjusted
  Adverse Events Leading to Discontinuation rate: 52.59 /1000 pt-yrs
  Adverse Events Related to Study Drug and Leading to Discontinuation rate: 14.77 /1000 pt-yrs
  Adverse Events Related to Study Drug rate: 92.38 /1000 pt-yrs
  Death (fatal adverse event) rate: 21.47 /1000 pt-yrs
  Serious Adverse Events Leading to Discontinuation rate: 26.39 /1000 pt-yrs
  Serious Adverse Events Related to Study Drug and Leading to Discontinuation rate: 3.15 /1000 pt-yrs
  Serious Adverse Events Related to Study Drug rate: 12.21 /1000 pt-yrs
  Serious Adverse Events rate: 145.17 /1000 pt-yrs
[2]; exposure adjusted, On-Treatment
  Any Adverse Events rate: 351.40 /1000 pt-yrs
[2]; in the study
  Reports of pheochromocytoma or testicular cell cancer: no reports
[2]; post-randomization
  Malignancy (Bladder) IRD, Canagliflozin vs. Placebo: 0.16 /1000 subject years
  Malignancy (Bladder) rate: 1.73 /1000 subject years
[2]; post-randomization, N = 2200
  Malignancy (Bladder) n (%): 10 (0.5)
[2]; [7]
  Acute kidney injury (%): (3.9) %
  Acute kidney injury n: 86
  Anuria (%): (<0.1) %
  Anuria n: 1
  Azotemia n: 0
  Blood Creatinine increased (%): (6.5) %
  Blood Creatinine increased n: 144
  Blood urea increased (%): (1.0) %
  Blood urea increased n: 21
  Glomerular filtration rate decreased (%): (3.1) %
  Glomerular filtration rate decreased n: 68
  Nephropathy toxic n: 0
  Renal failure (%): (0.5) %
  Renal failure n: 10
  Renal impairment (%): (2.3) %
  Renal impairment n: 50
